Measurements reported in publication PMC8268238, “Seleno-Functionalization of Quercetin Improves the Non-Covalent Inhibition of M^pro and Its Antiviral Activity in Cells against SARS-CoV-2” (International Journal of Molecular Sciences, 2021).
Read-outs that look alike come from different tables or passages of the source.

Legend:
Vero cells = assay: XTT cell viability assay; format: cell-based, Cercopithecus aethiops; details: quercetin 500–100 µM; 2d 100–10 µM; Figure S2
Procedure: Cell viability was evaluated using the XTT Cell Viability Assay kit (Biological Industries, Cromwell, CT, USA) according to the manufacturer’s protocol. Vero, A549ACE2+, CRFK, HRT-18, LLC-MK2, and HSF cells were cultured on 96-well plates. Cells were incubated with ACF for 24 h at 37 °C in an atmosphere containing 5% CO2. After incubation, the medium was discarded and 100 µL of fresh medium was added to each well. Then, 25 µL of the activated 2,3-bis-(2-methoxy-4-nitro-5-sulphenyl)-(2H)-tetrazolium-5-carboxanilide (XTT) solution was added and samples were incubated for 2 h at 37 °C. The absorbance (λ = 450 nm) was measured using a Spectra MAX 250 spectrophotometer (Molecular Devices, San Jose, CA, USA). The obtained results were normalized to the control samples, where cell viability was set to 100%.

SARS-CoV-2 M^pro [1] = molecular target: T1, SARS-CoV-2 M^pro (Severe acute respiratory syndrome coronavirus 2, UniProt P0DTD1); assay: SARS-CoV-2 M^pro inhibition assay (FRET substrate); format: biochemical; details: 0.2 μM enzyme, 20 μM substrate, pH 7, DMSO 2.5%
Procedure: A continuous assay based on Förster resonance energy transfer (FRET) to measure in vitro the catalytic activity of M^pro was implemented by using the substrate (Dabcyl)KTSAVLQSGFRKME(Edans)-NH2 (Biosyntan GmbH, Berlin, Germany) The enzymatic reaction was initiated by adding substrate at 20 μM (final concentration) to the enzyme at 0.2 μM (final concentration) in a final volume of 100 μL. The reaction buffer was sodium phosphate 50 mM, pH 7, NaCl 150 mM, and DMSO 2.5%. Fluorescence emission was measured in a FluoDia T70 microplate reader (Photon Technology International, Birmingham, NJ, USA) for 20 min (excitation wavelength, 380 nm; emission wavelength, 500 nm). The initial slope of the time evolution curve of the fluorescence emission signal provided a direct quantification of the enzymatic activity.
The in vitro inhibition potency of the compounds against M^pro was assessed through the estimation of the inhibition constant, Ki, and the half-maximal inhibitory concentration, IC50, from experimental inhibition curves. Inhibition curves were obtained by measuring the enzyme activity (at fixed 0.2 μM enzyme concentration and fixed 20 μM substrate concentration) as a function of compound concentration (serial 2-fold dilution from 125 µM to 0 μM), maintaining the percentage of DMSO (2.5%) constant. The enzymatic activity was quantitated as the initial slope of the substrate fluorescence emission time evolution curve, and was plotted as a function of compound concentration. The ratio between the activity (slope) in the presence and absence of the compound provides the residual percentage of activity at a given compound concentration. Nonlinear regression analysis employing a simple inhibition model (considering inhibitor depletion due to enzyme binding) allowed us to estimate the apparent inhibition constant, Ki^app, for each compound according to Equation (1):(1) [EI]=1/2([I]T+[E]T+Kiapp−([I]T+[E]T+Kiapp)^2−4[E]T[I]T)[I]=[I]T−[EI]=1/2([I]T−[E]T−Kiapp+([I]T+[E]T+Kiapp)^2−4[E]T[I]T)v([I])/v([I]=0)=1−[EI]/[E]T=1/1+[I]/Kiapp, where [EI] is the concentration of the enzyme–inhibitor complex, [E]T and [I]T are the total concentrations of the enzyme and the inhibitor, Ki^app is the apparent inhibition constant for the inhibitors (quercetin and derivatives), [I] is the concentration of the free inhibitor, and v is the initial slope of the enzymatic activity trace at a given (free) inhibitor concentration [I] (or total inhibitor concentration [I]T). No approximation for the free inhibitor concentration (e.g., assuming to be equal to the total inhibitor concentration) was made, thus having general validity for any total enzyme and inhibitor concentration and any value of the inhibition constant (even for tight-binding inhibitors). In addition, if the inhibitor acts through a purely competitive mechanism, the previous equation can be substituted by Equation (2):(2) v([I])/v([I]=0)=1/1+[I]/Kiapp=1/1+[I]/Ki(1+[S]/Km), where Ki is the intrinsic (i.e., substrate concentration-independent) inhibition constant, Km is the Michaelis–Menten constant for the enzyme–substrate interaction, and [S] is the substrate concentration. Because Km and [S] are known, the intrinsic inhibition constant can be determined. Furthermore, approximating the free compound concentration by the total compound concentration and neglecting ligand depletion, the Ki^app in Equation (2) is equivalent to the IC50, as reported in Table 3. However, it should be emphasized that the IC50 is an assay-dependent inhibition potency index (among other parameters, it depends on the enzyme and substrate concentrations, as well as on the Km); thus, the intrinsic inhibition constant is a better inhibition potency index. Uncertainties have been reported as 95% profile likelihood asymmetric confidence intervals, as especially recommended for equilibrium constants (i.e., binding association/dissociation constants and inhibition constants).

SARS-CoV-2 M^pro [2] = molecular target: T1, SARS-CoV-2 M^pro; assay: Reversibility test of M^pro interaction (SEC/dialysis, then activity and near-UV CD); format: biochemical; details: M^pro 24 μM incubated with compound 200 μM, 30 min, 25 °C, then SEC or dialysis
SARS-CoV-2 [3] = details: for Inhibition of the virus-caused cytopathic effect (CPE): 2 days
SARS-CoV-2 [4] = assay: Inhibition of SARS-CoV-2 replication in Vero cells by RT-qPCR; format: cell-based
[5] = system: SARS-CoV-2 main protease (M^pro or 3CL^pro); details: cited from earlier work
SARS-CoV-2 [6] = system: SARS-CoV-2; parameters: method as in PMID 32272481; details: cited from earlier work

Cc1ccc([Se]c2c(O)cc(O)c3c(=O)c(O)c(-c4ccc(O)c(O)c4)oc23)cc1 [2d, 2-(3,4-Dihydroxyphenyl)-3,5,7-trihydroxy-8-(p-tolylselanyl)-4H-chromen-4-one]
melting point: 203 to 206 °C
cytotoxicity on Vero cells (in words) (Vero cells): none of the tested concentrations exhibited cytotoxicity
IC50 (SARS-CoV-2 M^pro [1]; equivalent to Ki^app): 11 µM
Ki (SARS-CoV-2 M^pro [1]; intrinsic inhibition constant): 3.8 µM
reversibility of the interaction with M^pro (SARS-CoV-2 M^pro [2]): reversible interaction
Inhibition of the virus-caused cytopathic effect (CPE) (SARS-CoV-2 [3]; 10 µM, Vero cells): +
Inhibition of the virus-caused cytopathic effect (CPE) (SARS-CoV-2 [3]; 25 µM, Vero cells): +
Inhibition of the virus-caused cytopathic effect (CPE) (SARS-CoV-2 [3]; 50 µM, Vero cells): +
Inhibition of the virus-caused cytopathic effect (CPE) (SARS-CoV-2 [3]; 75 µM, Vero cells): +
Inhibition of the virus-caused cytopathic effect (CPE) (SARS-CoV-2 [3]; 100 µM, Vero cells): +
morphological changes of cells in the infection model (SARS-CoV-2 [3]; 100 µM, in half of experiments): morphological changes were observed
maximal non-toxic concentration (SARS-CoV-2 [3]; Vero cells, Figure S3): 100 µM
SARS-CoV-2-related CPE reduction (in words) (SARS-CoV-2 [3]; tested at 100, 75, 50, 25 and 10 µM, judged at non-toxic concentrations): inhibited the development of the CPE
IC50 (SARS-CoV-2 [4]; Severe acute respiratory syndrome coronavirus 2, Vero, 48 h, read-out: IC50 of SARS-CoV-2 replication (RT-qPCR)): 8 µM
logIC50 of SARS-CoV-2 replication (RT-qPCR) (SARS-CoV-2 [4]; log of concentration in µM, Figure S4): 0,8968
improvement of the antiviral potency versus quercetin (SARS-CoV-2 [4]; ratio of antiviral IC50 values): 24 fold

O=c1c2ccccc2[se]n1-c1ccccc1 [ebselen]
M^pro half-maximal inhibitory concentration (IC50), in words [5]: nanomolar range
Antiviral activity observed in cell models, in words (SARS-CoV-2 [6]): low micromolar levels

C[C@@H]1O[C@@H](OC[C@H]2O[C@@H](Oc3c(-c4ccc(O)c(O)c4)oc4cc(O)cc(O)c4c3=O)[C@H](O)[C@@H](O)[C@@H]2O)[C@H](O)[C@H](O)[C@H]1O [rutin]
M^pro inhibition potency relative to quercetin, in words [5]: slightly lower potency
